Columns and labels:
[1] = test system: collagen-induced arthritis in mice; test: In vivo CIA model (collagen-induced mouse arthritis); parameters: species or system DBA/1 mice; conditions: for total pathological score (two hind limbs, HE staining): Mean±SEM
Source text: The collagen-induced mouse arthritis model is an animal model for evaluating the therapeutic effect of drug treatment for psoriatic arthritis, of which pathogenesis and symptoms are obviously related to psoriatic arthritis. The model activated the reactivity of B cells and T cells to collagen by the injection of type II collagen. The activated B cells and T cells were attracted to the joints to cause the inflammation, thereby triggering a series of symptoms related to human psoriatic arthritis, such as redness and swelling of the joints, articular cartilage, joint capsule damage and other symptoms. Collagen-induced mouse arthritis is often used to evaluate the therapeutic effect during preclinical evaluation of candidate compounds for the medication for treating psoriatic arthritis.
The purpose of the experiment was to examine the therapeutic effect of the compound WX063 of embodiment 63 on collagen-induced arthritis in mice, thereby providing the preclinical pharmacodynamics information for subsequent clinical studies.
Mice were randomly divided into different treatment groups. The first immunization day is recorded as Day 0, and the following days were recorded in order.
After the DBA/1 mice were anesthetized with isoflurane, the prepared collagen emulsion was subcutaneously injected into the tail.
On Day 23, 100 μL of LPS solution was administered intraperitoneally.
On day 27, as the mean clinical score reached about 1 point, 60 mice with moderate disease were selected and re-randomized according to body weight and score, with 10 mice per group.
Dexamethasone as a positive control drug was administered at a dose of 0.3 mg/kg, which was common in the CIA model. […] It was administered once a day for a total of 11 days. The volume of the intragastric administration was 10 mL/kg.
Clinical observation: From Day 7 before immunization to Day 23 after immunization, the basic health status and the body weight changes of the DBA/1 mice were observed daily (recorded once a week). After Day 23, the health status, the arthritis incidence and the body weight changes of the mice were observed daily (recorded at least three times a week) until the end of the experiment.
Clinical score: After LPS injection, the arthritis incidence of mice was observed daily. As the clinical symptoms of arthritis occurred, the degree of disease was scored according to the standards of 0-4 (redness, joint deformation) at least three times a week, wherein the highest score for each limb was 4 points, and the highest score for each animal was 16 points. […].
Pathology: On day 38, the mice were euthanized. The hind limbs of the mice were taken, soaked in the 10% formalin solution, decalcified with formic acid solution, embedded in paraffin, sectioned, and stained with hematoxylin-eosin and photographed by microscopy. The degree of joint damage was evaluated from four aspects: inflammatory cell infiltration, formation of […], cartilage damage and bone resorption, and scored according to the standards of 0-4.
The experimental data were expressed as mean value±standard error of mean (Mean±SEM). The body weight and the clinical scores were analyzed by double factor variance (two-way ANOVA). Pathological scores and AUC were tested by T test. p<0.05 was considered as significant difference.

[2] = target: Recombinant human PDE4B (Homo sapiens (Human), UniProt Q07343); test: Inhibitory activity against PDE 4B in vitro (fluorescence polarization, Transcreener AMP2/GMP2); type: biochemical; conditions: 1 μM cAMP
Procedure: Inhibitory activity of the compounds against PDE 4B
The enzyme activity was indicated by measuring the AMP/GMP expression and tracing AMP/GMP antibody binding based on fluorescence polarization in the biological assay.
10 mM Tris-HCl (pH 7.5), 5 mM MgCl2, 0.01% Brij 35, 1 mM DTT and 1% DMSO.
Recombinant human PDE4B (Gen accession number: NM_002600; amino acid 305 end) was expressed by baculovirus in Sf9 insect cells using an N-terminal GST tag. MW=78 kDa.
Transcreener® AMP2/GMP2 antibody and AMP2/GMP2 AlexaFluor633 tracer
i) Recombinant human PDE4B and the enzyme substrate (1 μM cAMP) were dissolved in the newly-prepared buffer solution, respectively.
ii) The PDE4B buffer solution defined as above was transferred into the reaction wells.
iii) The compound which was dissolved in 100% DMSO was added to the reaction wells of the PDE4B buffer solution by ultrasonic oscillator (echo 550; nanoliter range) and incubated at room temperature for 10 minutes.
iv) The enzymatic buffer solution was then added to the reaction wells defined as above to initiate the reaction.
v) The reaction was incubated at room temperature for 1 hour.
vi) The reaction was terminated by adding detecting mixture (Transcreener® AMP2/GMP2 antibody and AMP2/GMP2 AlexaFluor633 tracer) and incubated for 90 minutes with slowly mixing. The measurement range of fluorescence polarization is Ex/Em=620/688.
The fluorescence polarization signal was converted into nM according to the AMP/GMP standard curve and the percent enzyme activity relative to DMSO calculated by Excel. GraphPad Prism was used to plot the curves (Drawing Medicine Icon).

[3] = test system: LPS-induced TNFα from the peripheral monocytes of human; test: Inhibitory effect against LPS-induced TNFα in hPBMC in vitro (ELISA); type: cell-based; conditions: Monocyte, TNFα in supernatant, 24 hours
Procedure: Inhibitory activity of the compounds against the LPS-induced TNFα from the peripheral monocytes of human.
1. Whole blood in normal human was collected and EDTA-K2 was used as anticoagulant.
2. PBMC was isolated by Ficoll density gradient centrifugation. The concentration of the cells was adjusted to 2×10^6/mL.
3. 2×10^5 of cells were seed in per well of the 96-well U-bottom plate, followed by the addition of 200 μL/well of LPS with 1 ng/mL and 200 μL/per well of the compound with different concentration: […], 100 pM and 10 pM, with two duplicates of each concentration.
4. The reaction was incubated for 24 hours and the supernatant was collected.
5. ELISA was used to detect the level of TNFα in the supernatant and Graphpad Prism software was used to plot the inhibition curve and calculate the value of IC50.

Chain of Recombinant human PDE4B (Q07343 305-736 limits assumed): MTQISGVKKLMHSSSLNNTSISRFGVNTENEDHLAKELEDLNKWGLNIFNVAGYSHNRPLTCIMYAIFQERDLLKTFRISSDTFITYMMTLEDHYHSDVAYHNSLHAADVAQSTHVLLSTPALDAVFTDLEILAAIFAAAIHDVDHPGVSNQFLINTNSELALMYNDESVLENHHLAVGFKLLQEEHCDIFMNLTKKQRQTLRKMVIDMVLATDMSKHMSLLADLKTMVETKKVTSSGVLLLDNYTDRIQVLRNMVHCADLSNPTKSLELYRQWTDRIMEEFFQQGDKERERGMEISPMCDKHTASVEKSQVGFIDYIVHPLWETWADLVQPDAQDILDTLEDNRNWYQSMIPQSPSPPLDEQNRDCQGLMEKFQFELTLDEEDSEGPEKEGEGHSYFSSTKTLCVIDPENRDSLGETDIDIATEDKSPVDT

| IC50 [2] [nM] | IC50 [3] [nM] | SMILES | further results |
| --- | --- | --- | --- |
|  |  | CCOc1cc([C@@H](CS(C)(=O)=O)N2C(=O)c3cccc(NC(C)=O)c3C2=O)ccc1OC [Apremilast, reference compound] | mean clinical score ([1]; 5 mg/kg intragastric once a day, Day 37): 4.2 points; mean clinical score lower compared with the vehicle control group ([1]; 5 mg/kg, Day 37): 3.7 points; total pathological score (two hind limbs, HE staining) ([1]; 5 mg/kg): 13.90±1.89 |
|  |  | C[C@@H]1C[C@H]2[C@@H]3CCC4=CC(=O)C=C[C@]4(C)[C@@]3(F)[C@@H](O)C[C@]2(C)[C@@]1(O)C(=O)CO [Dexamethasone, reference compound] | percentage inhibition of clinical score AUC relative to the vehicle control group ([1]; 0.3 mg/kg): 96.4%; clinical score ([1]; 0.3 mg/kg intragastric once a day, Day 30 and maintained to the end of the trial): 0 points |
| 1.25 | 3.4 | CCOc1cc([C@@H](CS(C)(=O)=O)n2c(=O)n(C)c3cc(-c4ccccc4F)cnc32)ccc1OC [WX057] |  |
| 0.685 | 0.56 | CCOc1cc([C@@H](CS(C)(=O)=O)n2c(=O)[nH]c3c(C)c(-c4ccccc4F)cnc32)ccc1OC [WX063] | percentage inhibition of clinical score AUC relative to the vehicle control group ([1]; 0.3 mg/kg): 43.9%; mean clinical score ([1]; 0.3 mg/kg intragastric once a day, Day 37): 3.6 points; percentage inhibition of clinical score AUC relative to the vehicle control group ([1]; 1 mg/kg): 39.4%; mean clinical score ([1]; 1 mg/kg intragastric once a day, Day 37): 4.3 points; total pathological score (two hind limbs, HE staining) ([1]; 1 mg/kg): 14.00±2.43; percentage inhibition of clinical score AUC relative to the vehicle control group ([1]; 3 mg/kg): 51.7%; therapeutic effect (clinical score and arthritis pathology score) versus Apremilast 5 mg/kg (in words) ([1]; 3 mg/kg): better than the one of Apremilast; mean clinical score ([1]; 3 mg/kg intragastric once a day, Day 37): 3.5 points; total pathological score (two hind limbs, HE staining) ([1]; 3 mg/kg): 9.20±1.83; treatment of collagen-induced arthritis and pathological changes of arthritis (in words) ([1]; doses of 0.3, 1 and 3 mg/kg): significant improvement |
| 1.87 | 8.8 | CCOc1cc([C@@H](CS(C)(=O)=O)n2c(=O)[nH]c3c(-c4ccccc4F)ccnc32)ccc1OC [WX065] |  |
| 2.48 | 3.8 | CCOc1cc([C@@H](CS(C)(=O)=O)n2c(=O)[nH]c3c(-c4ccccc4)ccnc32)ccc1OC [WX066] |  |
| 18.5 | 6.4 | CCOc1cc([C@@H](CS(C)(=O)=O)n2c(=O)[nH]c3c(-c4cnn(C)c4)ccnc32)ccc1OC [WX067] |  |
| 1.03 |  | CCOc1cc(C(CS(C)(=O)=O)n2c(=O)[nH]c3cc(-c4ccccc4)cnc32)ccc1OC(F)F (stereo not drawn) [WX074] |  |
| 5.39 |  | CCOc1cc(C(CS(C)(=O)=O)n2c(=O)[nH]c3c(C)c(C)cnc32)ccc1OC(F)F (stereo not drawn) [WX075] |  |
| < 0.5 |  | CCOc1cc(C(CS(C)(=O)=O)n2c(=O)[nH]c3c(C)c(-c4ccccc4F)cnc32)ccc1OC(F)F (stereo not drawn) [WX076] |  |
| 1.01 |  | CCOc1cc(C(CS(C)(=O)=O)n2c(=O)[nH]c3c(C)c(-c4ccccc4)cnc32)ccc1OC(F)F (stereo not drawn) [WX077] |  |
| < 0.5 |  | CCOc1cc(C(CS(C)(=O)=O)n2c(=O)[nH]c3c(-c4ccccc4)ccnc32)ccc1OC(F)F (stereo not drawn) [WX078] |  |

From patent publication US10662189B2, “PDE4 inhibitor” (SHIJIAZHUANG SAGACITY NEW DRUG DEVELOPMENT CO., LTD., priority 2016, dated 2020)
